# Experimental data as given in patent publication US4127687A, “Prevention of fouling of marine structures such as boat hulls” (Rohm and Haas Company, priority 1976, dated 1978).
# Experiments:
# [1] = Amount of toxicant remaining in the test container after membrane diffusion raft tests; format: physicochemical; design: key: 0: empty or trace; +: some; + +: ample; conditions: after completion of membrane diffusion raft tests
# Procedure, shortened: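 Known amount of compound held in a cylindrical container sealed with a membrane of known porosity, fixed to a raft panel so toxicant diffuses into the surrounding water. Each panel carries 35 test compounds, 4 standard poisons and 1 non-toxic membrane control. After the trial, container contents inspected visually for remaining toxicant (0 = empty or trace).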
# Hydroids = test: Membrane test, hydroids (Table 1 footnote d); format: in vivo; design: key: Effective against Hydroids
# From the text: 1). FIELD TESTS: - Membrane Diffusion Raft Trials
# A known quantity of the test compound is placed into a cylindrical plastic container whose open end is then covered with a membrane of known porosity; the complete unit is attached to the appropriate raft panel so that the poison can freely diffuse into the free water layer around it. Regular inspections, recording time and quantity of settlement, allow a life history of each membrane trial to be constructed. Each raft panel contains 35 compounds to be evaluated together with 4 standard poisons and 1 non-toxic membrane for control.
# The behavior on the raft can thus be compared with that of the standard poisons and the non-toxic control. At normal loading a membrane over the standard poisons would be free from macro-fouling after six months immersion. Compounds showing selective effects against restricted groups of fouling organisms also show up by membrane testing.
# ^d Effective against Hydroids.
# weed [2] = test: Membrane Diffusion Raft Trials, weed control; format: in vivo, grass-like algal growth common in sea water; conditions: membrane test, average 15 to 16 weeks of immersion
# Procedure, shortened: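 Field raft test in sea water: known quantity of compound in container sealed with membrane of known porosity, diffusing into surrounding water; panels at waterline (illuminated, aerated) and flats (poorly lit, deeper). Fouling settlement inspected over about 15-16 weeks average immersion; scored 0 none, + some, ++ effective.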
# [3] = Water solubility by UV spectrophotometric method; format: physicochemical; conditions: water, saturated solution; Table 1; read-out: Solubility by UV method
# Procedure, shortened: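 Molar absorptivity determined from UV absorbance of a known-concentration aqueous solution at λmax (10 cm cell). Saturated solution prepared by stirring excess compound in deionized water ~72 hrs, filtered, diluted to mid-scale absorbance; solubility calculated from absorbance using that absorptivity.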
# barnacle = test: Membrane Diffusion Raft Trials, barnacle control; format: in vivo, barnacles; conditions: membrane test, average 15 to 16 weeks of immersion
# Procedure, shortened: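 Test compound held in a plastic container sealed by a porous membrane, diffusing into surrounding seawater on raft panels alongside standard poisons and a non-toxic control membrane. Settlement timed and quantified by regular inspection; scored 0 (none), + (some) or ++ (effective), averaging 15 to 16 weeks' immersion.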
# [4] = tested on: sea water marine organisms; test: Effectiveness as sea water marine anti-foulant; format: in vivo; conditions: result in words
# From the text: The results in anti-fouling paints when utilizing the 3-isothiazolones of the patents noted above, are not predictable from their effectiveness as general biocides, whether against fresh water algae, bacteria, fungi, insects, etc.
# Of the compounds appearing hereinafter in the examples, a number are common to Table 1 appearing in columns 9-12 of the U.S. Pat. No. 3,573,488 patent. Among the compounds common to the latter patent and the present specification are the compounds identified in the patent as example numbers 3, 5-8, 13, 23, 24, 33, 36, 37, the n-octyl isomer of examples 38, 40, 75, 76, 79, 84, and 93-96.
# In example B of the U.S. Pat. No. 3,573,448 patent (appearing in columns 22-24) involving the control of algae, bacteria, fungi, and slime in fresh water cooling towers, not one of the compounds, or in some cases its homologue or analog, was effective as a salt water marine anti-foulant. […]
# In the following examples, two systems of testing the compounds and evaluating the same are utilized. One involves the utilization of a confined amount of the materials to be evaluated in a cylindrical container having an open end covered by a membrane permeable to a limited extent by the sea water and by the compound in the container. The other method involves making up an anti-fouling paint and testing the same. In a four month period, meaningful results are obtained, and for a full scale test, a six month period, bracketing the summer months, is preferred. The evaluations involving (1) field tests, (2) laboratory tests, and (3) paint panel tests, are as follows: […]
# weed [5] = test: Paint panel / plaque tests against weed (Table 2); format: in vivo, grass-like algal growth common in sea water; design: key: high performance; medium performance; low performance; poor or unacceptable performance; conditions: April to November, 1975
# From the text: (3) PAINT FORMULATION AND TEST PANEL OR PLAQUE TESTS
# In order to evaluate the compound under practical conditions, weighed quantities of promising compounds are ground in standard volumes of a selected range of paint media and brushed out on plaques for marine immersion.
# The anti-fouling paint formulations used is exemplified by the following: […]
# The most preferred specific compounds were utilized in paints including vinyl chloride-vinyl acetate copolymers, chlorinated rubber, acrylic emulsions, and conventional paints with or without rosin to contain 20% by weight of biocide in the wet film and in some cases (Example 144 and Example 145) with concentrations of 5, 10, and 15% based on the wet film. Each of the compounds is also described in the membrane tests noted above. The paints were applied at normal thicknesses to plaques or panels of 10 centimeters by 10 centimeters which were immersed in various positions as described for the raft noted above. The compounds and results, as against weed, in the season April to November, 1975, are as follows: […]
# Enteromorpha spores = test: Laboratory toxicity test (Lab Bioassay) with Enteromorpha spores; format: in vivo; conditions: using Enteromorpha spores
# Procedure, shortened: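 Enteromorpha spores (zoospores or gametes) exposed to test compounds in laboratory toxicity tests. LD50 values expressed as percentage saturated solution.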
compound,measurement,setting,value
CCCCCCCCn1sc(Cl)cc1=O [Example 16],Contents at the end of test (amount of toxicants remaining in the test container),[1],0
same,Effective against Hydroids (footnote mark d),Hydroids,d
same,Weed Control,weed [2],+ +
same,solubility,[3],66 µg/mL
same,Barnacle Control,barnacle,+ +
"O=c1c(Cl)c(Cl)sn1-c1ccc(Cl)cc1 [Example 145, 4,5-dichloro-2(4'-chlorophenyl)-3-isothiazolone]",effectiveness as anti-foulant in sea water marine environments,[4],effective in anti-fouling environments
same,Effectiveness in paint CONV (conventional anti-fouling formulation),weed [5],h
same,Effectiveness in paint CR (chlorinated rubber),weed [5],h
same,Effectiveness in paint EM (acrylic emulsion),weed [5],h
same,Effectiveness in paint V (polyvinyl chloride-acetate),weed [5],h
same,Effectiveness in paint V/R (vinyl/rosin),weed [5],h
CCCCCCCCn1sc(Cl)c(Br)c1=O [Example 88],Contents at the end of test (amount of toxicants remaining in the test container),[1],+
same,Effective against Hydroids (footnote mark d),Hydroids,d
same,Weed Control,weed [2],+ +
same,solubility,[3],2.6 µg/mL
same,Barnacle Control,barnacle,+ +
CCCCCCCCn1sc(Cl)c(Cl)c1=O [Example 57],Contents at the end of test (amount of toxicants remaining in the test container),[1],+ +
same,Effective against Hydroids (footnote mark d),Hydroids,d
same,Weed Control,weed [2],+ +
same,solubility,[3],2.3 µg/mL
same,Lab Bioassay LD50,Enteromorpha spores,0.001 percentage saturated solution
same,Effectiveness in paint CONV (conventional anti-fouling formulation),weed [5],m
same,Effectiveness in paint CR (chlorinated rubber),weed [5],h
same,Effectiveness in paint EM (acrylic emulsion),weed [5],h
same,Effectiveness in paint V (polyvinyl chloride-acetate),weed [5],h
same,Effectiveness in paint V/R (vinyl/rosin),weed [5],h
same,Barnacle Control,barnacle,+ +
CCCCCCCCCCn1sc(Cl)cc1=O [Example 22],Contents at the end of test (amount of toxicants remaining in the test container),[1],0
same,Effective against Hydroids (footnote mark d),Hydroids,d
same,Weed Control,weed [2],+ +
same,solubility,[3],7.2 µg/mL
same,Barnacle Control,barnacle,+ +
